Measured values as given in PubChem BioAssay AID1259411 (Chemical Carcinogenesis Research Information System (CCRIS), 2018).
Active and inactive are the calls of the source. The rule behind the calls is not given here.

Tested on: rodent carcinogenicity bioassays, tumor incidence
Assay: CCRIS carcinogenicity studies
Method in brief: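 NCI-built, expert-reviewed records of carcinogenicity and related test outcomes (mutagenicity, tumor promotion/inhibition) compiled from published and report sources, historical span 1985-2011, not updated.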

Measured: carcinogen call

CCCCN(CCCC)N=O
active: Species: GUINEA PIG, Route: ORAL, Tumor Site: Type of Lesion: LIVER active; positive | Species: HAMSTER, Route: GAVAGE, Tumor Site: Type of Lesion: LUNG, RESPIRATORY TRACT, TRACHEA, FORESTOMACH, Tumor Site: Type of Lesion: LUNG, RESPIRATORY TRACT, TRACHEA, FORESTOMACH active; positive | Species: HAMSTER, Route: INTRAPERITONEAL, Tumor Site: Type of Lesion: RESPIRATORY TRACT active; positive | Species: HAMSTER, Route: SUBCUTANEOUS, Tumor Site: Type of Lesion: TRACHEA, URINARY BLADDER, FORESTOMACH, RESPIRATORY TRACT, Tumor Site: Type of Lesion: TRACHEA, URINARY BLADDER, FORESTOMACH, RESPIRATORY TRACT active; positive | Species: MOUSE, Route: INTRAVENOUS, Tumor Site: Type of Lesion: HEMATOPOIETIC SYSTEM (LEUKEMIA) active; positive | Species: MOUSE, Route: ORAL, Tumor Site: Type of Lesion: ESOPHAGUS, FORESTOMACH, LIVER, URINARY BLADDER, Tumor Site: Type of Lesion: ESOPHAGUS, FORESTOMACH, LIVER, URINARY BLADDER active; positive | Species: MOUSE, Route: SUBCUTANEOUS, Tumor Site: Type of Lesion: URINARY BLADDER, LUNG active; positive | Species: RABBIT, Route: SUBCUTANEOUS, Tumor Site: Type of Lesion: URINARY BLADDER active; positive | Species: RAT, Route: ORAL, Tumor Site: Type of Lesion: ESOPHAGUS, LIVER, URINARY BLADDER, Tumor Site: Type of Lesion: ESOPHAGUS, LIVER, URINARY BLADDER active; positive | Species: RAT, Route: SUBCUTANEOUS, Tumor Site: Type of Lesion: URINARY BLADDER, LUNG active; positive

CCN(CC)CCCNC(=O)Cn1ncc(-c2ccccc2)c1-c1ccccc1
inactive: Species: RAT, Strain/Sex: SPRAGUE-DAWLEY/FEMALE, Route: GAVAGE, Dose: 0, 20, 80, 160 MG/KG 1/D FOR 1 YR (STUDY DURATION: 1 YR), Dose: 0, 20, 80, 160 MG/KG 1/D FOR 1 YR (STUDY DURATION: 1 YR) inactive; negative | Species: RAT, Strain/Sex: SPRAGUE-DAWLEY/MALE, Route: GAVAGE, Dose: 0, 20, 80, 160 MG/KG 1/D FOR 1 YR (STUDY DURATION: 1 YR), Dose: 0, 20, 80, 160 MG/KG 1/D FOR 1 YR (STUDY DURATION: 1 YR) inactive; negative

CCCCNC(=O)NS(=O)(=O)c1ccc(C)cc1
inactive: Species: MOUSE, Strain/Sex: B6C3F1/FEMALE, Route: ORAL, Dose: 0, 25000, 50000 PPM IN DIET, Dose: 0, 25000, 50000 PPM IN DIET inactive; negative | Species: MOUSE, Strain/Sex: B6C3F1/MALE, Route: ORAL, Dose: 0, 25000, 50000 PPM IN DIET, Dose: 0, 25000, 50000 PPM IN DIET inactive; negative | Species: RAT, Strain/Sex: F344/FEMALE, Route: ORAL, Dose: 0, 12000, 24000 PPM IN DIET, Dose: 0, 12000, 24000 PPM IN DIET inactive; negative | Species: RAT, Strain/Sex: F344/MALE, Route: ORAL, Dose: 0, 12000, 24000 PPM IN DIET, Dose: 0, 12000, 24000 PPM IN DIET inactive; negative

CC1=CC(O)=NS(=O)(=O)O1
inactive: Species: MOUSE, Strain/Sex: SWISS/FEMALE, Route: ORAL, Dose: 0, 3000, 10000, 30000 PPM IN DIET FOR 80 WK (STUDY DURATION: 80 WK), Dose: 0, 3000, 10000, 30000 PPM IN DIET FOR 80 WK (STUDY DURATION: 80 WK) inactive; negative | Species: MOUSE, Strain/Sex: SWISS/MALE, Route: ORAL, Dose: 0, 3000, 10000, 30000 PPM IN DIET FOR 80 WK (STUDY DURATION: 80 WK), Dose: 0, 3000, 10000, 30000 PPM IN DIET FOR 80 WK (STUDY DURATION: 80 WK) inactive; negative | Species: RAT, Strain/Sex: CPB-WK SPF/FEMALE, Route: ORAL, Dose: 0, 3000, 10000, 30000 PPM IN DIET FOR 113 WK (STUDY DURATION: 113 WK), Dose: 0, 3000, 10000, 30000 PPM IN DIET FOR 113 WK (STUDY DURATION: 113 WK) inactive; negative | Species: RAT, Strain/Sex: CPB-WK SPF/MALE, Route: ORAL, Dose: 0, 3000, 10000, 30000 PPM IN DIET FOR 120 WK (STUDY DURATION: 120 WK), Dose: 0, 3000, 10000, 30000 PPM IN DIET FOR 120 WK (STUDY DURATION: 120 WK) inactive; negative

CC(O)CN(C)c1ccc(NN)nn1 (configuration not stated)
inactive: Species: MOUSE, Strain/Sex: B6C3F1/MALE,FEMALE, Route: ORAL, Dose: 100, 200, 400 PPM IN DRINKING WATER FOR 80 WK, Dose: 100, 200, 400 PPM IN DRINKING WATER FOR 80 WK inactive; negative

Cn1cnc([N+](=O)[O-])c1Sc1ncnc2nc[nH]c12
inactive: Species: MOUSE, Strain/Sex: B6C3F1/MALE, Route: ORAL, Dose: 0, 5, 20 PPM IN DIET FOR 100 WK (STUDY DURATION: 100 WK), Dose: 0, 5, 20 PPM IN DIET FOR 100 WK (STUDY DURATION: 100 WK) inactive; negative
active: Species: MOUSE, Strain/Sex: B6C3F1/FEMALE, Route: ORAL, Dose: 0, 5, 20 PPM IN DIET FOR 100 WK (STUDY DURATION: 100 WK), Dose: 0, 5, 20 PPM IN DIET FOR 100 WK (STUDY DURATION: 100 WK), Tumor Site: Type of Lesion: HEMATOPOIETIC SYSTEM: LYMPHOMA, UTERUS: HEMANGIODOTHELIOMA active; positive | Species: MOUSE, Strain/Sex: SWISS/MALE,FEMALE, Route: INTRAPERITONEAL, Dose: 40 MG/KG IN NAOH-SALINE 1/D ON D 1-4 AFTER BIRTH, Tumor Site: Type of Lesion: HEMATOPOIETIC SYSTEM (LEUKEMIA) active; positive | Species: RAT, Strain/Sex: F344/MALE,FEMALE, Route: ORAL, Dose: 150 MG/KG IN DIET FOR 52 WK, Tumor Site: Type of Lesion: EAR: SQUAMOUS CELL CARCINOMA active; positive | Species: RAT, Strain/Sex: SPRAGUE-DAWLEY/FEMALE, Route: ORAL, Dose: 1.5, 2.2 G/RAT IN DIET (ESTIMATED TOTAL), Tumor Site: Type of Lesion: THYMUS GLAND: LYMPHOMA, EAR (DUCT): SQUAMOUS CELL CARCINOMA active; positive

CN(CCC=O)N=O
active: Species: RAT, Strain/Sex: F344/MALE, Route: SUBCUTANEOUS, Dose: 0, 6.57 MG (0.057 MMOL) IN 0.3 ML TRIOCTANOIN 3 D/WK FOR 15 WK (STUDY DURATION: 100 WK), Tumor Site: Type of Lesion: NASAL CAVITY: PAPILLOMA, LIVER: ADENOMA, LUNG: ADENOMA, Tumor Site: Type of Lesion: NASAL CAVITY: PAPILLOMA, LIVER: ADENOMA, LUNG: ADENOMA active; positive

O=[N+]([O-])c1cc2cccc3ccc4cccc1c4c32
active: Species: RAT, Strain/Sex: STRAIN-CD/FEMALE, Route: INJECTION, Dose: 0, 0.1 ML IN 20.3 UMOL/ML DMSO INJECTED INTO MAMMARY TISSUE OF THE 3 LEFT THORACIC NIPPLES FOLLOWED THE NEXT D BY SIMILA, Tumor Site: Type of Lesion: MAMMARY GLAND: FIBROADENOMA, ADENOCARCINOMA active; positive | Species: RAT, Strain/Sex: STRAIN-CD/FEMALE, Route: INJECTION, Dose: 0, 0.1 ML OF A 20.3 UMOL/ML SOLUTION IN DMSO INJECTED INTO MAMMARY TISSUE UNDERLYING 3 LEFT THORACIC NIPPLES THE FOLLOWI, Tumor Site: Type of Lesion: MAMMARY GLAND: FIBROADENOMA active; positive | Species: RAT, Strain/Sex: STRAIN-CD/FEMALE, Route: INTRAPERITONEAL, Dose: 0, 67 UMOL/KG BW IN DMSO 3/WK FOR 4 WK (STUDY DURATION: 61 WK), Tumor Site: Type of Lesion: MAMMARY GLAND: ADENOCARCINOMA active; positive | Species: RAT, Strain/Sex: STRAIN-CD/FEMALE, Route: INTRAPERITONEAL, Dose: 0, 67 UMOL/KG/BW IN 25 UMOL/ML DMSO 3/WK FOR 4 WK (TOTAL DOSE: 0; 119 UMOL) ADMINISTERED TO WEANLING RATS (STUDY DURATIO, Dose: 0, 67 UMOL/KG/BW IN 25 UMOL/ML DMSO 3/WK FOR 4 WK (TOTAL DOSE: 0; 119 UMOL) ADMINISTERED TO WEANLING RATS (STUDY DURATIO, Tumor Site: Type of Lesion: MAMMARY GLAND: ADENOCARCINOMA active; positive | Species: RAT, Strain/Sex: STRAIN-CD/FEMALE, Route: SUBCUTANEOUS, Dose: 0, 75 UMOL (TOTAL DOSE) ADMINISTERED OVER 8 WK BEGINNING WITHIN 24 HR OF BIRTH (STUDY DURATION: 86 WK), Tumor Site: Type of Lesion: MAMMARY GLAND: TUMOR, INTEGUMENTARY SYSTEM: MALIGNANT FIBROUS HISTIOCYTOMA, HEMATOPOIETIC SYSTEM: LEUKEMIA, ZYMBAL GLAND, Tumor Site: Type of Lesion: MAMMARY GLAND: TUMOR, INTEGUMENTARY SYSTEM: MALIGNANT FIBROUS HISTIOCYTOMA, HEMATOPOIETIC SYSTEM: LEUKEMIA, ZYMBAL GLAND active; positive
